We go through three molecules from patent US5068358A, “Process for extracting N-methyl-2-pyrrolidone” (Hoechst Aktiengesellschaft, priority 1988, dated 1991).

Read-outs that look alike come from different tables or passages of the source.

For data set [1] the following is noted: room temperature; cited from earlier work.
Data set [2] is classed as physicochemical. Conditions: nonylphenol. As to the method:
From the group of the phenols as defined above and substituted by aliphatic radicals, those are advantageously selected for the use according to the invention, whose melting point is below 90° C., preferably below 50° C. and especially below 20°-30° C. A low melting point of the phenol derivatives used allows the process to be carried out at correspondingly low temperatures, which has a very favorable effect on the partition coefficient KD. KD is defined as follows: [formula]
The phases were then allowed to settle and were separated, and the concentration of NMP in the two phases was determined.
After the phases had been allowed to settle, these were separated, and the concentration of NMP in the two phases was determined.
Thereupon, the phases were allowed to settle and were separated, and the concentration of NMP in the two phases was determined.
[…] After the phases had been allowed to settle, these were separated, and the concentration of NMP in the two phases was determined.

The mark [3] stands for this setting: Example 1a, feed 35% NMP, phase volume ratio 1:4, room temperature.
[4] abbreviates: Example 1b, feed 35% NMP, phase volume ratio 1:6, room temperature.
The mark [5] stands for this setting: Example 1c, feed 35% NMP, phase volume ratio 1:10, room temperature.
Setting [6] is: Example 1e, feed 33% NMP, phase ratio 1:2, 70° C.
[7] abbreviates: Example 1f, feed 33% NMP, phase volume ratio 1:10, 70° C.
[8] abbreviates: Example 1d, feed 9% NMP, phase volume ratio 1:1, room temperature.

For `Cc1cc(C)cc(O)c1` [3,5-dimethylphenol], the solubility in water in data set [1] is reported as 0.49 % by weight.
With `CN1CCCC1=O` [NMP, N-methyl-2-pyrrolidone], the “Aqueous raffinate phase (% by weight of NMP)” value amounted to 0.75 % by weight in data set [2] (setting [3]); 0.30 % by weight in data set [2] (setting [4]); 0.12 % by weight in data set [2] (setting [5]); 9.0 % by weight in data set [2] (setting [6]); 1.0 % by weight in data set [2] (setting [7]); 0.64 % by weight in data set [2] (setting [8]). The “Organic extract phase (% by weight of NMP)” value in data set [2] (setting [3]) came to 8.2 % by weight; in data set [2] (setting [4]), 5.8 % by weight; in data set [2] (setting [5]), 3.4 % by weight; in data set [2] (setting [6]), 12.4 % by weight; in data set [2] (setting [7]) it was 3.4 % by weight; in data set [2] (setting [8]), 8.3 % by weight.
`Cc1cccc(O)c1` [m-cresol]: the solubility in water in data set [1] is given as 2.3 % by weight.
